Target: T1, Vanilloid receptor (Rattus norvegicus, UniProt Q9ERZ8+Q9WUD2+O35433)
Experiment: Calcium +2 uptake into Dorsal Root Ganglion(DRG) neurons
Format: functional, tissue-based

For `C=C(C)[C@@]12C[C@@H](C)C34OC(Cc5ccccc5)(OC1[C@@H]3C=C(COC(C)=O)C[C@]1(O)C(=O)C(C)=C[C@@H]41)O2` (stereo partly drawn), which EC50 is on record?
Its EC50 is over 2 µM.

Which EC50 does the source give for `C=C(C)[C@@]12C[C@@H](C)C34OC(Cc5ccccc5)(OC1[C@@H]3C=C(COC(=O)Cc1cccc(OC)c1)C[C@]1(O)C(=O)C(C)=C[C@@H]41)O2` (stereo partly drawn) here?
Its EC50 is 0.00789 µM.

How did the EC50 turn out when `CCCCCCCCC(=O)NCc1ccc(OCCN)c(OC)c1` was run?
Its EC50 is 0.41 µM.

How did the EC50 turn out when `CCCCCCCCC(=O)NCc1cccc(OC)c1` was run?
The EC50 was over 100 µM.

For `CCCCCCCCC(=O)NCc1ccc(OC)c(OC)c1`, which EC50 is on record?
Its EC50 is over 6.41 µM.

`COc1cc(CC(=O)OC/C=C/[C@H]2[C@H]3OC4(Cc5ccccc5)O[C@H]3CC[C@H]2O4)ccc1O` was tested. Which EC50 did it give?
The EC50 was 9.15 µM.

How did the EC50 turn out when `COc1cc(CC(=O)OCC2=C[C@H]3[C@@H]4C(C)(C)[C@]4(OC(C)=O)C(OC(C)=O)[C@@H](C)C3(O)[C@@H]3C=C(C)C(=O)[C@@]3(OC)C2)ccc1O` (stereo partly drawn) was run?
Its EC50 is 8.51 µM.

How did the EC50 turn out when `C=C(C)[C@@]12C[C@@H](C)C34OC(Cc5ccccc5)(OC1[C@@H]3C=C(COC(=O)Cc1ccc(OC)c(N=[N+]=[N-])c1)C[C@]1(O)C(=O)C(C)=C[C@@H]41)O2` (stereo partly drawn) was run?
Its EC50 is 0.01064 µM.

With `C=C(C)C12C[C@@H](C)C34OC(Cc5ccccc5)(OC1[C@@H]3C=C(COC(=O)Cc1ccccc1)C[C@]1(O)C(=O)C(C)=CC41)O2` (single isomer, unassigned) as the compound, how does the EC50 read?
The EC50 was 0.01022 µM.

With `C=C(C)C12C[C@@H](C)C34OC(Cc5ccccc5)(OC1[C@@H]3C=C(COC(=O)Cc1ccc(O)c(OC)c1)C[C@]1(OC)C(=O)C(C)=C[C@@H]41)O2` (single isomer, unassigned) as the compound, how does the EC50 read?
Its EC50 is 0.0053 µM.

`CCCCCCCCC(=O)NCc1ccc(O)c(OC)c1` [NONIVAMIDE] was tested. Which EC50 did it give?
The EC50 was over 0.55 µM.

Target: T1, Vanilloid receptor
Experiment: Ability to stimulate uptake of Calcium into Dorsal Root Ganglion(DRG) neurons
Format: functional, tissue-based

For `C=C(C)[C@@]12C[C@@H](C)C34OC(Cc5ccccc5)(OC1[C@@H]3C=C(CNC(=O)Cc1ccc(O)c(OC)c1)C[C@]1(O)C(=O)C(C)=C[C@@H]41)O2` (stereo partly drawn), which EC50 is on record?
The EC50 was 0.122 µM.

`C=C(C)[C@@]12C[C@@H](C)C34OC(C)(OC1[C@@H]3C=C(COC(=O)Cc1ccc(O)c(OC)c1)C[C@]1(O)C(=O)C(C)=C[C@@H]41)O2` (stereo partly drawn) was tested. Which EC50 did it give?
Its EC50 is 0.0132 µM.

Which EC50 does the source give for `C=C(C)[C@@]12C[C@@H](C)C34OC(c5ccccc5)(OC1[C@@H]3C=C(COC(=O)Cc1ccc(O)c(OC)c1)C[C@]1(O)C(=O)C(C)=C[C@@H]41)O2` (stereo partly drawn) here?
The EC50 was 0.0076 µM.

How did the EC50 turn out when `C=C(C)C12C[C@@H](C)C34OC(Cc5ccccc5)(OC1[C@@H]3C=C(COC(=O)Cc1ccc(OCCN)c(OC)c1)C[C@]1(O)C(=O)C(C)=CC41)O2` (single isomer, unassigned) was run?
The EC50 was 0.01304 µM.

Which EC50 does the source give for `C=C(C)C12C[C@@H](C)C34OC(Cc5ccccc5)(OC1[C@@H]3C=C(COC(=O)Cc1ccccc1)C[C@]1(O)C(=O)C(C)=CC41)O2` (single isomer, unassigned) here?
The EC50 was 0.01022 µM.

How did the EC50 turn out when `C=C(C)C12C[C@@H](C)C34OC(Cc5ccccc5)(OC1[C@@H]3C=C(COC(=O)Cc1ccc(OC)c(OC)c1)C[C@]1(O)C(=O)C(C)=CC41)O2` (single isomer, unassigned) was run?
The EC50 was 0.01489 µM.

`C=C(C)C12C[C@@H](C)C34OC(Cc5ccccc5)(OC1[C@@H]3C=C(CO)C[C@]1(O)C(=O)C(C)=CC41)O2` (single isomer, unassigned) was tested. Which EC50 did it give?
The EC50 was over 20 µM.

With `C=C(C)[C@]12C[C@@H](C)[C@@]34O[C@](Cc5ccccc5)(O[C@@H]1[C@@H]3C=C(COC(=O)Cc1ccc(O)c(OC)c1)C[C@]1(O)C(=O)C(C)=C[C@@H]41)O2` [RESINIFERATOXIN] as the compound, how does the EC50 read?
Its EC50 is 0.0016 µM.

Target: Transient receptor potential cation channel subfamily V member 1 (Rattus norvegicus, UniProt O35433)
Experiment: Binding affinity against Vanilloid receptor in dorsal Root Ganglion (DRG) membranes using [3H]RTX binding assay.
Format: tissue-based

Sequence of Transient receptor potential cation channel subfamily V member 1 (O35433 whole entry): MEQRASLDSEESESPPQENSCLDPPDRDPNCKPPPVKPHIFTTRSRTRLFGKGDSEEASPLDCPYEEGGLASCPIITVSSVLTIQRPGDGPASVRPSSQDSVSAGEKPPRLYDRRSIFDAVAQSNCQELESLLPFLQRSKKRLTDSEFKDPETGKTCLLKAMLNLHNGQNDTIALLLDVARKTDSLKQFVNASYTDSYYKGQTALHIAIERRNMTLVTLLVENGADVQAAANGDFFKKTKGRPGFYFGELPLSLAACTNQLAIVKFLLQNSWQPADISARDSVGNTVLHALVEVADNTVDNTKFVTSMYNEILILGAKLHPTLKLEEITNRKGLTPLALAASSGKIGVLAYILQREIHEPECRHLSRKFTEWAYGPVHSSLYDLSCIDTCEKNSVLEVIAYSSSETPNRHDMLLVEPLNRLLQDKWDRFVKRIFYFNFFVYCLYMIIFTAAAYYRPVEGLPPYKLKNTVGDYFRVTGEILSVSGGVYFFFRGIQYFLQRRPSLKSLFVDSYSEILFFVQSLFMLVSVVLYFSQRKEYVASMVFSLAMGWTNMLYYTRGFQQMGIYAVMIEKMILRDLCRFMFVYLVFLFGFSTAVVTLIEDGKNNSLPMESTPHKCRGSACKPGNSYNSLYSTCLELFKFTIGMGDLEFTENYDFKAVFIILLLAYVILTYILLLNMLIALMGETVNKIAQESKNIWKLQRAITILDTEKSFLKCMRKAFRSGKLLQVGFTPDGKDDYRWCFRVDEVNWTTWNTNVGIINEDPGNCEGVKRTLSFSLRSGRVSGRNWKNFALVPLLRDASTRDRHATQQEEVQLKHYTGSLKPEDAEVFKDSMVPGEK

`C=C(C)[C@@]12C[C@@H](C)C34OC(Cc5ccccc5)(OC1[C@@H]3C=C(CNC(=O)Cc1ccc(O)c(OC)c1)C[C@]1(O)C(=O)C(C)=C[C@@H]41)O2` (stereo partly drawn) was tested. Which Ki did it give?
Its Ki is 0.0106 µM.

`C=C(C)[C@@]12C[C@@H](C)C34OC(C)(OC1[C@@H]3C=C(COC(=O)Cc1ccc(O)c(OC)c1)C[C@]1(O)C(=O)C(C)=C[C@@H]41)O2` (stereo partly drawn) was tested. Which Ki did it give?
The Ki was 0.0032 µM.

Which Ki does the source give for `C=C(C)[C@@]12C[C@@H](C)C34OC(c5ccccc5)(OC1[C@@H]3C=C(COC(=O)Cc1ccc(O)c(OC)c1)C[C@]1(O)C(=O)C(C)=C[C@@H]41)O2` (stereo partly drawn) here?
The Ki was 0.00017 µM.

Which Ki does the source give for `C=C(C)C12C[C@@H](C)C34OC(Cc5ccccc5)(OC1[C@@H]3C=C(COC(=O)Cc1ccc(OCCN)c(OC)c1)C[C@]1(O)C(=O)C(C)=CC41)O2` (single isomer, unassigned) here?
The Ki was 0.0043 µM.

How did the Ki turn out when `C=C(C)C12C[C@@H](C)C34OC(Cc5ccccc5)(OC1[C@@H]3C=C(COC(=O)Cc1ccccc1)C[C@]1(O)C(=O)C(C)=CC41)O2` (single isomer, unassigned) was run?
Its Ki is 0.0083 µM.

`C=C(C)C12C[C@@H](C)C34OC(Cc5ccccc5)(OC1[C@@H]3C=C(COC(=O)Cc1ccc(OC)c(OC)c1)C[C@]1(O)C(=O)C(C)=CC41)O2` (single isomer, unassigned) was tested. Which Ki did it give?
The Ki was 0.001 µM.

How did the Ki turn out when `C=C(C)C12C[C@@H](C)C34OC(Cc5ccccc5)(OC1[C@@H]3C=C(CO)C[C@]1(O)C(=O)C(C)=CC41)O2` (single isomer, unassigned) was run?
The Ki was over 10 µM.

With `C=C(C)[C@]12C[C@@H](C)[C@@]34O[C@](Cc5ccccc5)(O[C@@H]1[C@@H]3C=C(COC(=O)Cc1ccc(O)c(OC)c1)C[C@]1(O)C(=O)C(C)=C[C@@H]41)O2` [RESINIFERATOXIN] as the compound, how does the Ki read?
The Ki was 0.00012 µM.

Target: Transient receptor potential cation channel subfamily V member 1 (Rattus norvegicus) (UniProt O35433)
Experiment: Relative potency(RTX) against Dorsal Root Ganglion (DRG) membranes using RTX binding assay.
Format: functional, tissue-based

Sequence of Transient receptor potential cation channel subfamily V member 1 (Rattus norvegicus) (O35433 whole entry): as above

How did the Relative Potency turn out when `C=C(C)[C@@]12C[C@@H](C)C34OC(Cc5ccccc5)(OC1[C@@H]3C=C(CNC(=O)Cc1ccc(O)c(OC)c1)C[C@]1(O)C(=O)C(C)=C[C@@H]41)O2` (stereo partly drawn) was run?
The Relative Potency was 0.013.

`C=C(C)[C@@]12C[C@@H](C)C34OC(C)(OC1[C@@H]3C=C(COC(=O)Cc1ccc(O)c(OC)c1)C[C@]1(O)C(=O)C(C)=C[C@@H]41)O2` (stereo partly drawn) was tested. Which Relative Potency did it give?
The Relative Potency was 0.122.

How did the Relative Potency turn out when `C=C(C)[C@@]12C[C@@H](C)C34OC(c5ccccc5)(OC1[C@@H]3C=C(COC(=O)Cc1ccc(O)c(OC)c1)C[C@]1(O)C(=O)C(C)=C[C@@H]41)O2` (stereo partly drawn) was run?
The Relative Potency was 0.21.

`C=C(C)C12C[C@@H](C)C34OC(Cc5ccccc5)(OC1[C@@H]3C=C(COC(=O)Cc1ccc(OCCN)c(OC)c1)C[C@]1(O)C(=O)C(C)=CC41)O2` (single isomer, unassigned) was tested. Which Relative Potency did it give?
Its Relative Potency is 0.123.

`C=C(C)C12C[C@@H](C)C34OC(Cc5ccccc5)(OC1[C@@H]3C=C(COC(=O)Cc1ccc(OC)c(OC)c1)C[C@]1(O)C(=O)C(C)=CC41)O2` (single isomer, unassigned) was tested. Which Relative Potency did it give?
The Relative Potency was 0.107.

Which Relative Potency does the source give for `C=C(C)C12C[C@@H](C)C34OC(Cc5ccccc5)(OC1[C@@H]3C=C(CO)C[C@]1(O)C(=O)C(C)=CC41)O2` (single isomer, unassigned) here?
Its Relative Potency is under 8e-05.

How did the Relative Potency turn out when `C=C(C)[C@]12C[C@@H](C)[C@@]34O[C@](Cc5ccccc5)(O[C@@H]1[C@@H]3C=C(COC(=O)Cc1ccc(O)c(OC)c1)C[C@]1(O)C(=O)C(C)=C[C@@H]41)O2` [RESINIFERATOXIN] was run?
Its Relative Potency is 1.

Target: Transient receptor potential cation channel subfamily V member 1 (Rattus norvegicus) (UniProt O35433)
Experiment: Relative potency against RTX binding to Dorsal Root Ganglion (DRG) membranes
Format: functional, tissue-based

How did the Relative Potency turn out when `C=C(C)C12C[C@@H](C)C34OC(Cc5ccccc5)(OC1[C@@H]3C=C(COC(=O)Cc1ccccc1)C[C@]1(O)C(=O)C(C)=CC41)O2` (single isomer, unassigned) was run?
The Relative Potency was 0.157.

Target: Transient receptor potential cation channel subfamily V member 1 (Rattus norvegicus) (UniProt O35433)
Experiment: Binding affinity against Vanilloid receptor in dorsal root ganglion (DRG) membranes relative to resinferatoxin (RTX); not tested
Format: tissue-based

With `C=C(C)[C@@]12C[C@@H](C)C34OC(Cc5ccccc5)(OC1[C@@H]3C=C(CNC(=O)Cc1ccc(O)c(OC)c1)C[C@]1(O)C(=O)C(C)=C[C@@H]41)O2` (stereo partly drawn) as the compound, how does the Relative affinity read?
Its Relative affinity is 0.011.

How did the Relative affinity turn out when `C=C(C)[C@@]12C[C@@H](C)C34OC(C)(OC1[C@@H]3C=C(COC(=O)Cc1ccc(O)c(OC)c1)C[C@]1(O)C(=O)C(C)=C[C@@H]41)O2` (stereo partly drawn) was run?
Its Relative affinity is 0.038.

Which Relative affinity does the source give for `C=C(C)[C@@]12C[C@@H](C)C34OC(c5ccccc5)(OC1[C@@H]3C=C(COC(=O)Cc1ccc(O)c(OC)c1)C[C@]1(O)C(=O)C(C)=C[C@@H]41)O2` (stereo partly drawn) here?
Its Relative affinity is 0.706.

Which Relative affinity does the source give for `C=C(C)C12C[C@@H](C)C34OC(Cc5ccccc5)(OC1[C@@H]3C=C(COC(=O)Cc1ccc(OCCN)c(OC)c1)C[C@]1(O)C(=O)C(C)=CC41)O2` (single isomer, unassigned) here?
Its Relative affinity is 0.028.

For `C=C(C)C12C[C@@H](C)C34OC(Cc5ccccc5)(OC1[C@@H]3C=C(COC(=O)Cc1ccccc1)C[C@]1(O)C(=O)C(C)=CC41)O2` (single isomer, unassigned), which Relative affinity is on record?
Its Relative affinity is 0.015.

Which Relative affinity does the source give for `C=C(C)C12C[C@@H](C)C34OC(Cc5ccccc5)(OC1[C@@H]3C=C(COC(=O)Cc1ccc(OC)c(OC)c1)C[C@]1(O)C(=O)C(C)=CC41)O2` (single isomer, unassigned) here?
The Relative affinity was 0.12.

Which Relative affinity does the source give for `C=C(C)C12C[C@@H](C)C34OC(Cc5ccccc5)(OC1[C@@H]3C=C(CO)C[C@]1(O)C(=O)C(C)=CC41)O2` (single isomer, unassigned) here?
Its Relative affinity is under 1e-05.

For `C=C(C)[C@]12C[C@@H](C)[C@@]34O[C@](Cc5ccccc5)(O[C@@H]1[C@@H]3C=C(COC(=O)Cc1ccc(O)c(OC)c1)C[C@]1(O)C(=O)C(C)=C[C@@H]41)O2` [RESINIFERATOXIN], which Relative affinity is on record?
Its Relative affinity is 1.

Source: ChEMBL document CHEMBL1129076 (J Med Chem, 1996)
